{
  "source": "patent US12643855B2",
  "about": "“Fluorogenic dimer compound, useful as a probe for detection of endogenous receptors” (UNIVERSITE DE STRASBOURG, priority 2020, dated 2026)",
  "key": {"[1]": {"details": "in MeOH; cited from earlier work"}, "[2]": {"molecular_target": "T1, endogenous OTR (oxytocin receptor) in mammary glands (Mus musculus, UniProt P97926)", "T1 construct": "target-specific imaging of the naturally expressed receptor in living mice; from tissue; host or cells: living lactating Swiss mice (mammary glands), in vivo imaging", "T1 sequence (P97926 1-388)": "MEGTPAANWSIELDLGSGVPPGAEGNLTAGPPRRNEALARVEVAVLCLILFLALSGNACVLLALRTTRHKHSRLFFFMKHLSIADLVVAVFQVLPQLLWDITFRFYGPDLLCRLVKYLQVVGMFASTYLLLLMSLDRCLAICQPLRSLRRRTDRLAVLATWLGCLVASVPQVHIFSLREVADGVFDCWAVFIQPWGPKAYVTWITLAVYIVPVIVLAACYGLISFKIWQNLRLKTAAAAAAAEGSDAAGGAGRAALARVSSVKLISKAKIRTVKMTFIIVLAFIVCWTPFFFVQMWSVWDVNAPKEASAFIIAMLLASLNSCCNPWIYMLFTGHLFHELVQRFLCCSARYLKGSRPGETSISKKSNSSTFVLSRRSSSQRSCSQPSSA", "assay": "In vivo fluorescence biodistribution study (small animal fluorescence imaging)", "details": "lactating mice, 7.5 nmol i.v., imaged 30 min after", "experimental": "Representative images of at least 3 biological replicates.\nTwelve-week-old pregnant female Swiss mice were purchased from Janvier Laboratories (France). Animals were maintained under controlled environmental conditions (20±2° C.) with a relative humidity (50±10%) and a 12 hour light/dark cycle in Individually ventilated cages (GM500, Techniplast) with bedding made from spruce wood chips (Safe, villeAugy, France) and enriched with nestlets. Food (autoclavable diet, D04, Safe, France) and tap water were available ad libitum. Animal experimentation was conducted with the approval of the French ministry of agriculture and the Ethics local committee for animal experimentation of the Strasbourg University (CREMEAS) under the authorization number #11974-2017103010101372.\nAnimal fluorescence imaging was performed using a luminograph (NightOwl, Berthold Technologies). Lactating mice 11 days after delivery were anesthetized intraperitoneally (Ketamine 150 mg/kg, xylazine 10 mg/kg). Fluorescent compounds (100 μL containing 7.5 nmol in 0.9% NaCl) with or without non-fluorescent carbetocin (100 μL containing 450 nmol in 0.9% NaCl) were administered intravenously (tail vein). […] Mice were imaged using a halogen lamp (75 W, 340-750 nm) and emission of the dyes was recorded using a 630/700 nm filter. […]"}, "[3]": {"system": "GFP-fused oxytocin receptor (GFP-OTR)", "assay": "Fluorescence confocal microscopy on living HEK293 cells expressing GFP-OTR, no-wash conditions", "format": "cell-based", "details": "500 nM", "procedure": "FIG. 1: Confocal microscopy studies of dCy5.5-PEG-CBT and mCy5.5-PEG-CBT on living HEK 293 cells expressing OTR-GFP fusion under no-wash conditions. Cells were incubated with the ligands for 5 min at room temperature prior to the imaging.\nHEK293 cells expressing the GFP-fused oxytocin receptor (GFP-OTR) and wild-type HEK293 cells were cultured in Eagle's minimal essential medium (MEM, Invitrogen 21090) with 10% of heat-inactivated fetal bovine serum, 100 U/mL of penicillin, 100 µg/mL of streptomycin, 2 mM of glutamine and 50 µg/mL of hygromycin B for GFP-OTR cells at 37° C. in a humidified 5% CO2 atmosphere. 70-80% cell confluence was maintained by removal of a portion of the culture and replacement with fresh medium twice a week. For confocal microscopy studies, cells were seeded onto 35 mm ibiTreat Ibidi Polymer Coverslip at a density of 100 000 cells/Ibidi 24 h before microscopy.\n[…] For competition experiments, a mixture of 10 nM of fluorescent ligands and 2 μM of carbetocin was used. Fluorescence confocal microscopy experiments were performed on a Leica TCS SPE-II microscope with a HXC PL APO 63×/1.40 OIL CS objective. GFP excitation was performed with a 488 nm 10 mW laser, the excitation of Cy5.5 was performed with a 635 nm 18 mW laser. Image treatment was proceeded using ImageJ (Wayne Rasband, National Institute of Mental Health, Bethesda)."}, "[4]": {"details": "in EtOH; cited from earlier work"}, "[5]": {"details": "in EtOH; cited from earlier work", "remark": "listed apart in the source"}},
  "note": "Where two headings read alike, the source gives them in different places.",
  "data": [
    {"compound": "CCCCCCCCCCCCCCCCCCN1/C(=C/C=C/C=C/C2=[N+](CCCCCCCCCCCCCCCCCC)c3ccccc3C2(C)C)C(C)(C)c2ccccc21.[O-][Cl+3]([O-])([O-])[O-]", "note": "[DID]", "values": [
      {"measurement": "Fluorescence quantum yield (QY) of the reference", "setting": "[1]", "value": 33, "unit": "%"}
    ]},
    {"compound": "CC[C@H](C)[C@@H]1NC(=O)[C@H](Cc2ccc(OC)cc2)NC(=O)CCCSC[C@@H](C(=O)N2CCC[C@H]2C(=O)N[C@@H](CCCCn2cc(CNC(=O)CCNC(=O)CCC(=O)NCCOCCOCCNC(=O)CCC(=O)NCCOCCOCCNC(=O)CCC(=O)NCCOCCOCCNC(=O)CCCCCN3/C(=C/C=C/C=C/C4=[N+](CCOCCOCCOCCOCCOCCOCCOCCOC)c5ccc6ccccc6c5C4(C)C)C(C)(C)c4c3ccc3ccccc43)nn2)C(=O)NCC(N)=O)NC(=O)[C@H](CC(N)=O)NC(=O)[C@H](CCC(N)=O)NC1=O.O=C([O-])C(F)(F)F", "note": "[mCy5.5-PEG-CBT]", "values": [
      {"measurement": "Off-target fluorescence signal", "setting": "[2]", "value": "strong off-target fluorescence"},
      {"measurement": "Image background from unbound probe", "setting": "[3]", "value": "strong background"}
    ]},
    {"compound": "Rhodamine 800", "values": [
      {"measurement": "Fluorescence quantum yield (QY) of the reference", "setting": "[4]", "value": 25, "unit": "%"},
      {"measurement": "Fluorescence quantum yield (QY) of the reference", "setting": "[5]", "value": 25, "unit": "%"}
    ]}
  ]
}
